From publication PMC10816625, “Targeting Alzheimer’s Disease: Evaluating the Efficacy of C-1 Functionalized N-Aryl-Tetrahydroisoquinolines as Cholinergic Enzyme Inhibitors and Promising Therapeutic Candidates” (International Journal of Molecular Sciences, 2024)
Entries after “also recorded” stand apart in the source; their conditions may differ.

Experiments:
in vitro = details: for Papp: pig, PAMPA; for PAMPA-BBB Permeability Pe: porcine polar brain lipids, UPLC quantification
Description: The assay was performed according to the method reported by Di et al. with slight modification. Commercial drugs, verapamil, and caffeine were used to validate the protocol. […] Each sample was analyzed with at least three independent experiments in three wells.

eeAChE = biological target: T1, eeAChE (Electrophorus electricus, UniProt O42275); test: biochemical; format: biochemical; details: for IC50: Table 1, mean ± SD; for Selectivity Index for AChE: IC50(BChE)/IC50(AChE)
T1 construct: purchased Sigma-Aldrich C3389
Description: (§1) The abilities of synthesized 22 compounds to inhibit AChE and BuChE activity were determined following Ellman’s procedure using a Perkin Elmer Lambda 35 spectrophotometer with thermostated 1.00 cm quartz cells. AChE’s and BuChE’s stock solutions were diluted with 20 mM TRIS to give 1 unit per mL of enzymes’ activity. […] A 0.01 M DTNB solution was prepared with 0.1 M phosphate buffer (pH 7) containing 0.15% (w/v) sodium bicarbonate. A 0.1 M phosphate buffer (pH 8) was used for assay. pH was adjusted to 8.0 ± 0.1 by adding aliquots of concentrated HCl. Stock solutions (10 mM) of investigated compounds were prepared daily by dissolving solid compounds in DMSO. Diluted solutions were also prepared in DMSO.
(§2) Briefly, enzymes’ assays were prepared as follows. […] Thereafter, 20 μL of ASChI or BSChCI was added, after which the reaction was initiated. […] For the blank value, the addition of 20 μL of buffer replaced the enzyme solution while an addition of 7 μL of DMSO replaced the inhibitor solution. The control solution contained 7 μL of DMSO instead of the inhibitor. The screening test was performed at a 1 × 10^−5 M concentration, and the compounds with more than 50% of inhibition were further assayed using dilution series of up to eight increasing concentrations (10^−5 M to 10^−9 M). The inhibition potency was presented as the dependence on the relative enzyme activity (REA) as the function of the compound’s concentration. IC50 values were determined graphically from Hill curves using Origin 9 Microsoft Windows.

eqBuChE = biological target: T2, eqBuChE (Equus caballus, UniProt P81908); test: biochemical; details: Table 1; preincubation 6 min, incubation 6 min, 37 °C; mean ± SD; read-out: IC50 BuChE
T2 construct: butyrylcholinesterase (BuChE) from horse serum (C1057); purchased Sigma-Aldrich C1057; host or cells: horse serum
Description: as §1, §2

AChE [1] = biological target: T3, AChE (Electrophorus electricus, UniProt O42275); test: Kinetic study of AChE inhibition (Lineweaver-Burk); format: biochemical; details: for Type of Inhibition (AChE): Lineweaver-Burk plot; for Ki: preincubation 6 min, incubation 2 min
T3 construct: purchased Sigma-Aldrich C3389
Description: (§3) Kinetic studies of ChE enzymes were also performed using the above-mentioned modified Ellman’s method. The preincubation time was 6 min, while the incubation time was 2 min. The type of enzyme inhibition was justified by the Lineweaver–Burk plot (double reciprocal plot) for selected inhibitor concentrations, and substrate concentrations ranged from 0.01 to 1 mM. The kinetic parameters Km, Vmax, and Ki were determined. Graphs were plotted using Origin9 for Microsoft Windows.

AChE [2] = biological target: T3, AChE; test: Trp fluorescence-quenching titration of AChE; format: binding; details: 5 IU/mL AChE
Description: (§4) Fluorescence titration studies were conducted using the Agilent Cary Eclipse fluorescence spectrophotometer. Fluorescence-quenching spectra were recorded within the wavelength range of 320–450 nm, with an excitation at 295 nm at room temperature. Excitation and emission slit widths were both set at 5 nm, and the scanning rate was fixed at 9600 nm/min. The concentration of enzymes was 5 IU/mL. The incubation time between each addition of THIQ aliquots was 6 min.

[3] = logP determination by UPLC; format: physicochemical; details: reversed-phase ACQUITY UPLC BEH C18 column; UPLC method
Description: . The column used for logP determinations was ACQUITY UPLC BEH C18 column with the dimensions 1.7 μm × 100 mm × 2.1 mm (Waters). The measurements were performed in the isocratic mode. The eluent flow rate was 0.25 mL min^−1, and the injection volume was 5 μL. The mobile phase composition was a different percentage of acetonitrile and H2O (we ran a chromatogram for each compound with different eluent compositions and the acetonitrile fraction ranging from 64% to 91%). The wavelength of the optical detection was 256 nm, the retention times for every examined compound under certain experimental conditions were determined. At the beginning, the compound’s retention factor, k’, was determined for different percentages of acetonitrile in the mobile phases. The column’s dead time was determined by the injection of sodium bromide. After that, the retention factors for a pure aqueous eluent (log kw) were determined for the compounds with previously known logPo/w values as well as for the investigated compounds. […]

BuChE [4] = biological target: T4, BuChE (Equus caballus, UniProt P81908); test: Kinetic study of BuChE inhibition (Lineweaver-Burk); format: biochemical
T4 construct: butyrylcholinesterase (BuChE) from horse serum (C1057); purchased Sigma-Aldrich C1057; host or cells: horse serum
Description: as §3

BuChE [5] = biological target: T4, BuChE; test: Trp fluorescence titration of BuChE; format: binding; details: 5 IU/mL BuChE
Description: as §4

[6] = preincubation 6 min, incubation 6 min, 37 °C
[7] = excitation 295 nm, room temperature

T4 sequence (P81908 whole entry): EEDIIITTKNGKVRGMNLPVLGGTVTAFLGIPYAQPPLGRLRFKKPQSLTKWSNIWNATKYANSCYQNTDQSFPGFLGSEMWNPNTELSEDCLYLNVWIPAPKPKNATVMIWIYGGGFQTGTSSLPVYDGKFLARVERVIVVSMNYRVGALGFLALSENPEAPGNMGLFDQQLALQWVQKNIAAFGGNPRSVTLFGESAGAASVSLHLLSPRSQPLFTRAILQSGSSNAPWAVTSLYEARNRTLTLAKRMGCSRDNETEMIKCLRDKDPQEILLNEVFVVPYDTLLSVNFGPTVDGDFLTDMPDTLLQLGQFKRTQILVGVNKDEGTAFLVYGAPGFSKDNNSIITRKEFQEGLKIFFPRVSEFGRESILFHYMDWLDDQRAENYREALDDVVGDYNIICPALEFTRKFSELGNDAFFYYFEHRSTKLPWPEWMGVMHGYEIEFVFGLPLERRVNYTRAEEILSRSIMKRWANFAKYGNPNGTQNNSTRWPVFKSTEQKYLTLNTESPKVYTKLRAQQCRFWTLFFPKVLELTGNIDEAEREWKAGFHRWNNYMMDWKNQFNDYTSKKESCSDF
T2 sequence (P81908 whole entry): as above
T1 sequence (O42275 24-633): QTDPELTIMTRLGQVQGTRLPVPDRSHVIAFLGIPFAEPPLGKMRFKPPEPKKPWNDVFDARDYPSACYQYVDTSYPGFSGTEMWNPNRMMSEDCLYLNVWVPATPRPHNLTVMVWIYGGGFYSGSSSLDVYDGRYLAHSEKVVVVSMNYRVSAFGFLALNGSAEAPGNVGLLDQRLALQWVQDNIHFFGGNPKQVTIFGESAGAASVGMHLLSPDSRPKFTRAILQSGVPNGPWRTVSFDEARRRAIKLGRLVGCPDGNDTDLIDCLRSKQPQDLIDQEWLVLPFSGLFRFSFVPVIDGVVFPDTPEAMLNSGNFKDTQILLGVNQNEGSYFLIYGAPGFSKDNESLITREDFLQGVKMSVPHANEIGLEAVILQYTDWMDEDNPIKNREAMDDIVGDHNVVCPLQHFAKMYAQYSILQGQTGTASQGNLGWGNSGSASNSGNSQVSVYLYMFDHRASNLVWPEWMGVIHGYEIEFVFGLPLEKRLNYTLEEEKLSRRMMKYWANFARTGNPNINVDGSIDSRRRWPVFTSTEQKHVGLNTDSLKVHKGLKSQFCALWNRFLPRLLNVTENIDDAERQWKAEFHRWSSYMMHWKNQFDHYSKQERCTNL
T3 sequence (O42275 24-633): as above

| Compound | IC50 (eeAChE; [6]) [µM] | IC50 (eqBuChE) [µM] | Selectivity Index for AChE (eeAChE) | further results |
| --- | --- | --- | --- | --- |
| Cn1c(=O)c2c(ncn2C)n(C)c1=O [Caffeine, reference compound] |  |  |  | Papp (in vitro): 1.47 ×10⁻⁶ cm/s |
| c1ccc(N2CCc3ccccc3C2)cc1 [Compound 1a, N-phenyl-1,2,3,4-tetrahydroisoquinoline] | > 10 | > 10 |  | Residual Activity at 1 × 10^−5 M AChE (eeAChE; 1 × 10^−5 M, preincubation 6 min, incubation 6 min, 37 °C): did not show inhibition potential |
| CC(=O)CC1c2ccccc2CCN1c1ccccc1 (stereo not shown) [Compound 2a] | > 10 | > 10 |  |  |
| CC(=O)CC1c2ccccc2CCN1c1ccc(F)cc1 (stereo not shown) [Compound 2b] | 5.46 ± 0.58 | 8.9 ± 2.03 | 1.63 |  |
| COc1cc2c(cc1OC)C(CC(C)=O)N(c1ccccc1)CC2 (stereo not shown) [Compound 2c] | 5.04 ± 0.28 | > 10 |  |  |
| COc1cc2c(cc1OC)C(CC(C)=O)N(c1ccc(F)cc1)CC2 (stereo not shown) [Compound 2d] | > 10 | > 10 |  |  |
| CCC(=O)CC1c2cc(OC)c(OC)cc2CCN1c1ccccc1 (stereo not shown) [Compound 2e] | > 10 |  |  |  |
| O=C(CC1c2ccccc2CCN1c1ccccc1)c1ccccc1 (stereo not shown) [Compound 3a] | 4.29 ± 0.09 | 8.26 ± 1.05 | 1.93 |  |
| COc1ccc(N2CCc3ccccc3C2CC(=O)c2ccccc2)cc1 (stereo not shown) [Compound 3b] | 9.05 ± 0.81 | > 10 |  |  |
| COc1cc2c(cc1OC)C(CC(=O)c1ccccc1)N(c1ccccc1)CC2 (stereo not shown) [Compound 3c] | 1.95 ± 0.23 | > 10 | >5 | fold increase in inhibitory activity towards AChE (eeAChE; compared to compound 2c): 2.5 fold; Type of Inhibition (AChE) (AChE [1]): Non-competitive; Ki (AChE [1]): 1.78 ± 0.1 µM; Quenching of Trp fluorescence of AChE (AChE [2]): no quenching of Trp fluorescence; chromatographic logP [3]: 3.39; Papp (in vitro): 47.5 ×10⁻⁶ cm/s; PAMPA-BBB Permeability Pe (in vitro): successfully crossed the artificial blood−brain barrier; also recorded: able to cross the BBB |
| COc1cc2c(cc1OC)C(CC(=O)c1ccccc1)N(c1ccc(F)cc1)CC2 (stereo not shown) [Compound 3d] | 4.89 ± 0.15 | > 10 |  | fold lower inhibitory activity towards AChE (eeAChE; compared to unsubstituted 3c): 2.5 fold |
| COc1cc2c(cc1OC)C(CC(=O)c1ccccc1)N(c1ccc(C)cc1)CC2 (stereo not shown) [Compound 3e] | > 10 |  |  |  |
| O=C(CCC1c2ccccc2CCN1c1ccccc1)c1ccccc1 (stereo not shown) [Compound 3f] | 2.42 ± 0.09 | 6.28 ± 0.36 | 2.59 | chromatographic logP [3]: 3.66; PAMPA-BBB Permeability Pe (in vitro): impossible to be detected; also recorded: High hydrophobicity; it retained in the membrane |
| COc1cc2c(cc1OC)C(CCC(=O)c1ccccc1)N(c1ccccc1)CC2 (stereo not shown) [Compound 3g] | 6.78 ± 0.22 | 8.01 ± 0.55 | 1.18 |  |
| COc1cc2c(cc1OC)C(CCC(=O)c1ccccc1)N(c1ccc(F)cc1)CC2 (stereo not shown) [Compound 3h] | > 10 | > 10 |  |  |
| O=C(CCc1ccccc1)CCC1c2ccccc2CCN1c1ccccc1 (stereo not shown) [Compound 3i] | 1.11 ± 0.04 | 2.72 ± 0.2 | 2.45 | Type of Inhibition (AChE) (AChE [1]): Non-competitive; Ki (AChE [1]): 1.06 ± 0.01 µM; Type of Inhibition (BuChE) (BuChE [4]; Lineweaver-Burk plot): mixed type of inhibition (non-competitive/uncompetitive); also recorded: Mix non-competitive/uncompetitive; Ki (BuChE [4]; preincubation 6 min, incubation 2 min): 1.04 ± 0.1 µM; Quenching of Trp fluorescence of AChE (AChE [2]): quenching of Trp fluorescence was observed; n (number of binding sites) (AChE [2]): 0.94 ± 0.04; Ksv (AChE [2]; [7]): (6.96 ± 0.05) × 10^4 M^−1; kq (bimolecular quenching constant) (AChE [2]; [7]): (6.96 ± 0.05) × 10^14 M^−1s^−1; Effect on Trp fluorescence of BuChE (BuChE [5]): fluorescence intensity of BuChE was increased; chromatographic logP [3]: 3.78; PAMPA-BBB Permeability Pe (in vitro): impossible to be detected; also recorded: High hydrophobicity; it retained in the membrane |
| O=C(CCc1ccccc1)CCC1c2ccccc2CCN1c1ccc(F)cc1 (stereo not shown) [Compound 3j] | 2.91 ± 0.09 | 4.52 ± 0.15 | 1.55 |  |
| COc1cc2c(cc1OC)C(CCC(=O)CCc1ccccc1)N(c1ccccc1)CC2 (stereo not shown) [Compound 3k] | 4.02 ± 0.19 | > 10 |  |  |
| COc1cc2c(cc1OC)C(CCC(=O)CCc1ccccc1)N(c1ccc(F)cc1)CC2 (stereo not shown) [Compound 3l] | > 10 | > 10 |  |  |
| N#CC1c2ccccc2CCN1c1ccccc1 (stereo not shown) [Compound 4a] | > 10 | > 10 |  |  |
| COc1cc2c(cc1OC)C(C#N)N(c1ccc(F)cc1)CC2 (stereo not shown) [Compound 4b] | > 10 | > 10 |  |  |
| COc1cc2c(cc1OC)C(C#N)N(c1ccc(C)cc1)CC2 (stereo not shown) [Compound 4c] | > 10 | > 10 |  |  |
